Measurements: publication PMC10985088, “Synthesis and biological evaluation of echinomycin analogues as potential colon cancer agent” (Scientific Reports, 2024)

Tests used:
MIA PaCa-2 cells = conditions: read-out: IC50 MIA PaCa-2; human pancreatic carcinoma cell, 72 h, mean ± SE (n = 3)
Method: With a range of chromophore analogues in hand, their toxicity to SW620 cells was investigated by WST assays.
Basically, the evaluation was performed using methods previously reported by our group[20],[23]. Cytotoxic activities of compounds against MIA PaCa-2 (American Type Culture Collection), SW620 (European Collection of Authenticated Cell Cultures) were measured by WST-8 assay according to manufacturer’s protocol. Briefly, cells (1 × 10^4 cells/well) in a 96-well plate were cultured in medium (for MIA PaCa-2, D-MEM (Wako, Japan) containing 10% fetal bovine serum (Funakoshi, Japan), 100 units/mL penicillin G and 100 µg/mL streptomycin (Wako, Japan), for SW620, RPMI-1640 (Wako, Japan) containing 10% fetal bovine serum, 100 units/mL penicillin G and 100 µg/mL streptomycin) were cultured at 37 °C for 24 h under 5% CO2 atmosphere. Then, cells were treated with test compounds (final DMSO concentration was 1%) at 37 °C for 72 h under 5% CO2 atmosphere. Then, cells were treated with a solution of Cell Counting Kit-8® (Dojindo, Japan) for 3 h. After that, cell viabilities were determined based on the measurement of absorption at 450 nm of the wells by using TECAN Infinite® M200 microplate reader. The results were expressed as a percentage of the negative control (cells treated with DMSO only), and that value was fixed at 100%.

[1] = test system: HIF-1α-mediated transcription; assay: HRE reporter gene assay in SW620 cells overexpressing HIF-1α; format: cell-based, human; conditions: SW620 transiently overexpressing HIF-1α, 16 h
Text: Echinomycin is known to inhibit the HIF-1 pathway by inhibiting the binding of HIF-1α to HRE[15],[21],[22]. The ability of 3 to inhibit HIF-1α-mediated transcription was investigated by using an HRE reporter gene assay in SW620 cells transiently overexpressing HIF-1α.
Figure 5 Effect of echinomycin (1), 2 and 3 on HIF-1α-dependent transcription in SW620 cells. SW620 cells were transiently transfected with empty vector pCI-neo-3 × FLAG or HIF-1α expression vector pCI-neo-3 × FLAG-HIF-1α, together with pGL3-5 × HRE-Luc and pGL4.75 [hRluc/CMV]. One day after transfection, echinomycin (1), 2, or 3 was added to the cell culture media and incubated for an additional 16 h. The cells were lysed, and a dual luciferase assay was performed. Firefly luciferase activity was normalized to Renilla luciferase activity, and the data are presented as fold induction relative to the values obtained in cells DMSO-treated cells transfected with empty vector. The error bars represent standard deviations (n = 3). *P < 0.05 and **P < 0.01 compared to DMSO-treated cells transfected with HIF-1α (Student’s test).
Basically, the assay was performed using methods previously reported by our group. […]

[2] = Serum biochemistry / blood examination of treated mice; format: in vivo; conditions: 0.4 µg/mouse i.p., Day 14
Method: Toxicity Body weight change is an indicator of systemic toxicity. Accordingly, the body weights of mice intraperitoneally treated with different doses (0.04 and 0.4 µg/mouse) of either 1 or 3 were measured (Fig. S1). […] A blood hematological examination (including nineteen parameters) was also conducted on these mice on Day 14 (Fig. S2). There were no significant changes in almost any of the parameters in the mice treated with either 1 or 3 at doses of 0.04 or 0.4 µg/mouse.
Male BALB/c mice (7 weeks old) were purchased from Charles River Laboratories Japan, Inc. Each compound was intraperitoneally injected daily for 14 days. […] Serum was collected by centrifuging blood at 5000 rpm for 10 min. Biochemistry was performed in Oriental Yeast Co., Ltd, Japan.

SW620 xenograft = SW620 xenograft mouse model; format: in vivo; conditions: i.p. 0.04 and 0.4 µg/mouse daily for 10 days, compared to PBS-injected group
Method: Since the metabolic stability and identification of the maximum tolerated dose of 3 were confirmed, the effect of 3 on colon cancer progression in vivo was then investigated (Fig. 7). A xenograft model was generated by injecting a suspension of 2 × 10^6 SW620 cells into the backs of nude mice. The doses of the compounds were 0.04 and 0.4 µg/mouse, which correspond to approximately 1.6 and 16 μg/kg, respectively, according to the results obtained in Fig. S1. A solution of 1, 3, or PBS was injected intraperitoneally into each mouse, and tumor sizes were measured each day. […] Of note is the efficacy of tumor growth inhibition with 3.
Figure 7 In vivo anticancer activity of echinomycin and 3 on the SW620 xenograft mice model. Male BALB/C nude mice were administered by intraperitoneal injection with the vehicle, echinomycin and 3, at dosages of 0.04 and 0.4 µg/mice (n = 10 each group), every day for 10 days (a, b). Average tumor volume (c) was measured. Data are expressed as the mean ± standard error ([…]). *Indicates P < 0.05 by Student's t test. The error bars show the s.d. (n = 10).
Basically, the experiments were performed using methods previously reported. […] The tumor size was calculated by the following formula: Tumor size (mm^2) = (major diameter) × (minor diameter).

## CS[C@H]1SC[C@H]2C(=O)N(C)[C@@H](C(C)C)C(=O)OC[C@@H](NC(=O)c3cnc4ccccc4n3)C(=O)N[C@@H](C)C(=O)N(C)[C@@H]1C(=O)N(C)[C@@H](C(C)C)C(=O)OC[C@@H](NC(=O)c1cnc3ccccc3n1)C(=O)N[C@@H](C)C(=O)N2C [Compound 1, Echinomycin]
MIA PaCa-2 cells
  IC50: 0.75 ± 0.02 nM
[1]
  HIF-1α-induced HRE reporter activity: inhibited
[2]
  alanine aminotransferase (ALT): increase
  aspartate aminotransferase (AST): increase
  lactate dehydrogenase (LDH): increase
  total bilirubin (T-BIL): decrease
SW620 xenograft
  tumor growth: significantly suppressed
